Data taken from patent publication US20210346354A1, “MACROPINOCYTOSIS IN CANCER” (Memorial Sloan-Kettering Cancer Center, priority 2015, published 2021).

What was measured:
K-Ras^G12D MEFs [1] = assay: Lysosomal degradation of DQ-BSA (fluorescence dequenching) in K-Ras^G12D MEFs; type: cell-based, mouse
Experimental: (§1) For live imaging, medium was supplemented with 0.3 mg/ml DQ Green BSA. 1 h prior to imaging, 50 nM LysoTracker Red and 0.2 μg/ml Hoechst were added. Cells were imaged either immediately after addition of DQ-BSA and torin 1, or after 5-6 h incubation using a Zeiss LSM 5 LIVE.
To characterize how cells derive leucine from extracellular proteins, cellular albumin uptake was investigated using constitutively fluorescent albumin and intracellular albumin proteolysis using a self-quenched albumin that emits fluorescence upon degradation (DQ-BSA) (Reis et al., 1998). […] It was then determined whether lysosomal albumin degradation was required to support growth during leucine starvation. […] Ras GTPases can promote cellular uptake of macromolecules through macropinocytosis (Bar-Sagi and Feramisco, 1986). […] To investigate whether this endocytic pathway contributed to albumin-dependent growth, cells were treated with the Na^+/H^+ exchange inhibitor EIPA, which blocks macropinocytosis but not other endocytic pathways (West et al., 1989).
To distinguish these possibilities, it was first tested whether mTORC1 inhibition increased internalization of extracellular macromolecules. […] It was next examined whether mTORC1 inhibition affected lysosomal degradation of internalized proteins.

K-Ras^G12D MEFs [2] = assay: Proliferation assay (cell numbers) of K-Ras^G12D MEFs in starvation medium; type: cell-based, mouse
Experimental: (§2) Cell culture experiments were performed at 37° C. and 5% CO2 in DMEM/F12 with 10% dialyzed FBS (molecular weight cut-off 10,000; Gemini Biosystems), 100 U/mL penicillin, 100 μg/mL streptomycin, 5 mM glucose and 2 mM glutamine. For proliferation assays, MEFs were plated in complete medium, 5 h later briefly rinsed and then cultured in starvation medium as indicated. For EAA titration experiments, EAAs were supplemented at indicated percentages of 1×MEM amino acid solution (M5550, Sigma). Cancer cell lines were cultured in complete medium for 1 day prior to starvation. Numbers of adherent cells, which are >95% viable as assessed by Trypan Blue exclusion were determined using a Multisizer 4 Coulter Counter (Beckman). For mTOR activation and localization experiments, cells were rinsed and then incubated in EAA starvation medium (DMEM/F12 lacking all amino acids except glutamine) for 1 h, and subsequently placed in medium supplemented with EAAs (1×MEM amino acid solution), albumin (3%, if not stated otherwise) or fresh EAA-free starvation medium for indicated periods of time.

wild type MEFs = assay: Lysosomal degradation of DQ-BSA in wild type MEFs; type: cell-based, mouse; conditions: 250 nM torin 1; 6 h DQ-BSA uptake
Experimental: as §1
To further investigate how Ras and mTORC1 signaling regulated lysosomal proteolysis of internalized proteins, the effects of mTORC1 inhibition and K-Ras activation were compared. […] Thus, K-Ras enhances a cell's ability to take up and degrade extracellular proteins. In contrast, whereas mTORC1 specifically restricts their lysosomal degradation.

[3] = tested on: K-Ras mutant tumor cell lines (KRPC, MiaPaCa-2, A549); assay: Proliferation of K-Ras mutant tumor cell lines; type: cell-based; conditions: 250 nM torin 1
Experimental: Dashed lines indicate starting cell numbers. P-values were calculated using a two-tailed unpaired t-test. ***p<0.001. […] Under experimental conditions, cells have abundant glucose supplied in their medium and are thus unlikely to utilize leucine for lipid as opposed to protein synthesis during anabolic growth. Consistent with this, when cells were labeled with ^14C-leucine, the ratio of protein to lipid incorporation of label was: control cells 364±69, torin-1 treated cells 203±27, raptor-deficient cells 87±3. Data are represented as mean±STDEV (n=3).
as §2, with “For mTOR activation and localization experiments, cells were rinsed and then incubated in EAA starvation medium (DMEM/F12 lacking all amino acids except glutamine) for 1 h, and subsequently placed in medium supplemented with EAAs (1×MEM amino acid solution), albumin (3%, if not stated otherwise) or fresh EAA-free starvation medium for indicated periods of time.” left out

CCC(=O)N1CCN(c2ccc(-n3c(=O)ccc4cnc5ccc(-c6cnc7ccccc7c6)cc5c43)cc2C(F)(F)F)CC1 [torin 1]
DQ-BSA proteolysis, torin 1 combined with constitutive K-Ras activation (K-Ras^G12D MEFs [1]; 250 nM torin 1, 6 h DQ-BSA uptake, versus either manipulation alone): almost four times more than either manipulation alone
fluorescence dequenching of DQ-BSA (K-Ras^G12D MEFs [1]; 250 nM torin 1, followed over time): dramatic increase
rate of DQ-BSA degradation after torin 1 pre-treatment (K-Ras^G12D MEFs [1]; pre-treating with 250 nM torin 1 for 6 h or 16 h): did not increase the rate of DQ-BSA degradation
cell proliferation (K-Ras^G12D MEFs [2]; 3% albumin, EAAs abundant extracellularly, 250 nM torin 1, day 3): strongly decreased cell proliferation
cell proliferation (K-Ras^G12D MEFs [2]; 3% albumin, low EAA concentrations, 250 nM torin 1, day 3): significantly improved cell proliferation
cell proliferation (K-Ras^G12D MEFs [2]; 3% albumin, over a 10-fold range of EAA concentrations, 250 nM torin 1): only slightly reduced proliferation
cell proliferation (K-Ras^G12D MEFs [2]; free leucine provided extracellularly, increasing doses of torin 1, day 3): decreased with increasing doses
cell proliferation (K-Ras^G12D MEFs [2]; leucine-free medium +3% albumin, torin 1 raised from 50 to 300 nM): progressively improved cell proliferation
cell proliferation (K-Ras^G12D MEFs [2]; medium lacking isoleucine, lysine or arginine, 3% albumin, 250 nM torin 1): induced cells to robustly proliferate
DQ-BSA fluorescence (wild type MEFs): significant increase
cell proliferation ([3]; leucine-containing medium +3% albumin, day 3): strongly decreased their proliferation
cell proliferation ([3]; leucine-free medium +3% albumin, day 4): induced several carcinoma cell lines harboring activating Ras mutations to proliferate
